Measured values: patent US7105520B2, “Phenylalanine derivatives” (Ajinomoto Co., Inc., priority 2000, dated 2006)

What was measured:
integrin α 4β1 = molecular target: T1, integrin α 4β1 (Homo sapiens, UniProt P05556+P13612); assay: VCAM antagonistic activity (VCAM-1/α4β1 binding assay), Jurkat cells binding to VCAM-1; format: cell-based; conditions: Jurkat cells (human T cells) binding to recombinant human VCAM-1; room temperature, 30 minutes; read-out: VCAM-1/α 4 β 1 linking antagonization activity IC50
T1 construct: cell strain Jurkat (ATCC TIB-152) of human T cells, known to express integrin α 4β1; host or cells: Jurkat (human T cell line)
Procedure: (Test Example) VCAM Antagonistic Activity (VCAM-1/α4β1 Binding Assay):
The capacity of a test substance antagonistic to the binding of cell strain Jurkat (ATCC TIB-152) of human T cells, known to express integrin α 4β1, to VCAM-1 was determined.
(§1) 100 μl/well of a solution (500 ng/ml) of recombinant human VCAM-1 (R & D systems) solution diluted with buffer A (0.1 M NaHCO3, pH 9.6) was added to a micro titer plate having 96 wells (Nunc Maxisorp). After the incubation at 4° C. overnight, unbound VCAM-1 was removed by washing once with PBS. After completion of the washing, a buffer (buffer B) obtained by diluting Block Ace® (Dainippon Pharmaceutical Co., Ltd.) with PBS to ¼ concentration was added in an amount of 150 μl/well. After the incubation at room temperature for 1 hour, buffer B was removed and the plate was washed with PBS once.
Jurkat cells were washed with Dulbecco modified Eagle medium (SIGMA, hereinafter referred to as “DMEM”) twice and then incubated in DMEM containing 10 μg/ml of Calcein-AM (Wako Pure Chemical Industries, Ltd.) at 37° C. in dark place for 30 minutes to label with fluorescence. The cells were again suspended in a binding buffer (20 mM HEPES, DMEM containing 0.1% BSA).
(§2) 50 μl of a test substance of various concentrations obtained by the dilution with the binding buffer was added to the plate. Immediately thereafter, 50 μl (final volume: 100 μl/well) of the fluorescent Jurkat cells (4×10^6 cells/ml) were added thereto, and they were incubated at room temperature for 30 minutes. After the shaking on a plate shaker (IKA MTS-4) at 800 rpm for 30 seconds, the solution was immediately removed to remove the unbound cells. The fluorescence quantity of the bound cells remaining in the wells was determined with a fluorescent plate reader (Wallac 1420 ARVO multi-label counter) (filter excitation wave length: 485 nm, emission wave length: 535 nm). The fluorescent strength thus obtained is proportional to the number of Jurkat cells bound to VCAM-1 and remaining on the plate. The binding rate of each test material in various concentrations was determined while the fluorescent strength of the test material-free well was determined to be 100%. The concentration IC50 for the 50% binding inhibition was calculated.

integrin α 4β7 = molecular target: T2, integrin α 4β7 (Homo sapiens, UniProt P13612+P26010); assay: VCAM antagonistic activity (VCAM-1/α4β7 binding assay), RPMI-8866 cells binding to VCAM-1; format: cell-based; conditions: RPMI-8866 cells (human B cells) binding to recombinant human VCAM-1; binding buffer containing 4 mM of MnCl2; room temperature, 30 minutes; read-out: VCAM-1/α 4 β 7 linking antagonization activity IC50
T2 construct: lymphoma cell strain RPMI-8866 of human B cells, known to express integrin α 4β7; endogenous in cells; host or cells: RPMI-8866 (human B lymphoma cell line)
T2 sequence (P13612 34-1032): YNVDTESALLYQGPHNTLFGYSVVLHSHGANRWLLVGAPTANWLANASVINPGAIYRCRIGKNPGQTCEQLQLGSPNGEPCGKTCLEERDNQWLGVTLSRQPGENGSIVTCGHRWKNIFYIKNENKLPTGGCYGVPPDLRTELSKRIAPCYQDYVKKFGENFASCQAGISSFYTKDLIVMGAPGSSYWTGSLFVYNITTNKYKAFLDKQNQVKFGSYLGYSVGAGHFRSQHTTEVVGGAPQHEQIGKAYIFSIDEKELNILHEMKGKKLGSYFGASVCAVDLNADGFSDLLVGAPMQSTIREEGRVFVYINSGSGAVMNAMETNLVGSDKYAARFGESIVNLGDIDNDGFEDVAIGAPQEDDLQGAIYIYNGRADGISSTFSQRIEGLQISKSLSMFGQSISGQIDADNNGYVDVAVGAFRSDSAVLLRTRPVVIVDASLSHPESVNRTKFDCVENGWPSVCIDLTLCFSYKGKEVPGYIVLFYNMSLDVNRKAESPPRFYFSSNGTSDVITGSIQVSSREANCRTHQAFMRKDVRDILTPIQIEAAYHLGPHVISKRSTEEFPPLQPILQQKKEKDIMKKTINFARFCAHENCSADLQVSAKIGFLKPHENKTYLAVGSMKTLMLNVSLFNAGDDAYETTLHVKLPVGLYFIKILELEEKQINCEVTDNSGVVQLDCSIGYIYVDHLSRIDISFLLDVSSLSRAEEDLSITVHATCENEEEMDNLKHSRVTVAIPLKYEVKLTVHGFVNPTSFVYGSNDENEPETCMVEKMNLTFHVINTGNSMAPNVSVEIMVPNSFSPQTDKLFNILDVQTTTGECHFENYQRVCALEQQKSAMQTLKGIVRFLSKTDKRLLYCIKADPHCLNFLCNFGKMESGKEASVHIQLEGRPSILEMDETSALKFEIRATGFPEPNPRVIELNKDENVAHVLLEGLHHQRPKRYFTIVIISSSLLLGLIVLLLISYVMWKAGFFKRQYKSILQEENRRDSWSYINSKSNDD
T2 sequence (P26010 20-798): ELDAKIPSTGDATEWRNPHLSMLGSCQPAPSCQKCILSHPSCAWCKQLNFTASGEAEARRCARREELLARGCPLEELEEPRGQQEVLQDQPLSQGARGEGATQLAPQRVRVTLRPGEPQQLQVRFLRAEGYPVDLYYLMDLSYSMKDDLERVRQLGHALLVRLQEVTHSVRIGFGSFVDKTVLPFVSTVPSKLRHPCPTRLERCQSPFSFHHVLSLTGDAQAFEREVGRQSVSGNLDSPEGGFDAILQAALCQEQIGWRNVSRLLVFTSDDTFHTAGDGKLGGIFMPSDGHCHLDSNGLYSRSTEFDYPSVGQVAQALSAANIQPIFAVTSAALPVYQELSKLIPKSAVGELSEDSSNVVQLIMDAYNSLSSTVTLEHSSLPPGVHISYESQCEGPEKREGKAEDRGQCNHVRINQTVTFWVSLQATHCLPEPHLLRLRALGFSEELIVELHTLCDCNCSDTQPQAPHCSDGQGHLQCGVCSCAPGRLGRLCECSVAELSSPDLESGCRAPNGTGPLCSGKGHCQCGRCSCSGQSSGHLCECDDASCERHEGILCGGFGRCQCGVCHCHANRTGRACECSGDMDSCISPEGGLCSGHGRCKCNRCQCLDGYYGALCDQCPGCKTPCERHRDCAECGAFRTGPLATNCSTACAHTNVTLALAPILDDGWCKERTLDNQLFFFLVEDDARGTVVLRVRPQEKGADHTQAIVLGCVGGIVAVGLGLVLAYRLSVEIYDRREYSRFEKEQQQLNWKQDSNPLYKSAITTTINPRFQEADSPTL
Procedure: (Test Example) VCAM Antagonistic Activity (VCAM-1/α4β7 Binding Assay):
The capacity of a test substance antagonistic to the binding of lymphoma cell strain RPMI-8866 of human B cells, known to express integrin α 4β7, to VCAM-1 was determined.
as §1
RPMI-8866 cells were incubated in DMEM containing 10 μg/ml of Calcein-AM (Wako Pure Chemical Industries, Ltd.) at 37° C. for 30 minutes to label with fluorescence. The cells were again suspended in a binding buffer (20 mM HEPES, DMEM containing 0.1% BSA) containing 4 mM of MnCl2.
as §2, with “RPMI-8866” for “Jurkat”

T1 sequence (P05556 21-798, one chain of several): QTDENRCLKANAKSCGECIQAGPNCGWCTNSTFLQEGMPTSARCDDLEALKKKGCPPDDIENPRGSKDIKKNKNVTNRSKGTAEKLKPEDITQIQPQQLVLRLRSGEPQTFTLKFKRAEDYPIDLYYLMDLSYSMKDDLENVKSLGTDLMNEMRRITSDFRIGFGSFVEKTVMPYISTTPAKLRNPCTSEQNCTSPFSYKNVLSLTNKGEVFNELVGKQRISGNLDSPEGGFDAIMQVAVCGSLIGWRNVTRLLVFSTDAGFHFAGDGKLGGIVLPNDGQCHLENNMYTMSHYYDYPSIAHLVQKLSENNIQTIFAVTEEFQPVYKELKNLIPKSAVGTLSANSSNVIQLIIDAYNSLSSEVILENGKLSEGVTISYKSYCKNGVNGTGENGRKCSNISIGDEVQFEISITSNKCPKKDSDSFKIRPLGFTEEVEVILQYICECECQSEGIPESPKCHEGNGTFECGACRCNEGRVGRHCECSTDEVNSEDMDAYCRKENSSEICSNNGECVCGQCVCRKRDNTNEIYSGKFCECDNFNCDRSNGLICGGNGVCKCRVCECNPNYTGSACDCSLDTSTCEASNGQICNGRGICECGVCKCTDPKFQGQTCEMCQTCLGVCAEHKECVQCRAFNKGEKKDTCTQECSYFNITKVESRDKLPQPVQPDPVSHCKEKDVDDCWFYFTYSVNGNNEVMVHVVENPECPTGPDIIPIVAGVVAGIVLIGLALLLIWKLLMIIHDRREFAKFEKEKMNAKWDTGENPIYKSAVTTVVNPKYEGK

Compound | IC50 (integrin α 4β1) | IC50 (integrin α 4β7)
CC(C)NCCN(c1ccc([N+](=O)[O-])c(C(=O)NC(Cc2ccc(OCc3c(Cl)cccc3Cl)cc2)C(=O)O)c1)C(C)C (stereo not shown) [Example 2, N-(3-(N-isopropylaminoethyl-N′-isopropyl)amino-6-nitrobenzoyl)-O-(2,6-dichlorobenzyl)tyrosine] | 4000 nM | 100 nM
CC(C)NCCCN(c1ccc([N+](=O)[O-])c(C(=O)NC(Cc2ccc(OCc3c(Cl)cccc3Cl)cc2)C(=O)O)c1)C(C)C (stereo not shown) [Example 3] | 5500 nM | 120 nM
CCCNCCCCN(CCC)c1ccc([N+](=O)[O-])c(C(=O)NC(Cc2ccc(OCc3c(Cl)cccc3Cl)cc2)C(=O)O)c1 (stereo not shown) [Example 4] | 3700 nM | 120 nM
CC1CN(c2ccc([N+](=O)[O-])c(C(=O)NC(Cc3ccc(OCc4c(Cl)cccc4Cl)cc3)C(=O)O)c2)C(C)CN1 (stereo not shown) [Example 5] | 4900 nM | 140 nM
CCNC/C=C/CN(CC)c1ccc([N+](=O)[O-])c(C(=O)NC(Cc2ccc(OCc3c(Cl)cccc3Cl)cc2)C(=O)O)c1 (stereo not shown) [Example 6] | 4800 nM | 150 nM
CCNCCN(CC)c1ccc([N+](=O)[O-])c(C(=O)NC(Cc2ccc(OCc3c(Cl)cccc3Cl)cc2)C(=O)O)c1 (stereo not shown) [Example 7] | 9400 nM | 160 nM
O=C(NC(Cc1ccc(OCc2c(Cl)cccc2Cl)cc1)C(=O)O)c1cc(N2CCNCC2)ccc1[N+](=O)[O-] (stereo not shown) [Example 8] | 4000 nM | 750 nM
CCCN(C)c1ccc([N+](=O)[O-])c(C(=O)NC(Cc2ccc(OCc3c(Cl)cccc3Cl)cc2)C(=O)O)c1 (stereo not shown) [Example 12] | 4100 nM | 360 nM
O=C(NC(Cc1ccc(OCc2c(Cl)cccc2Cl)cc1)C(=O)O)c1cc(N2CCOCC2)ccc1[N+](=O)[O-] (stereo not shown) [Example 18] | 2200 nM | 140 nM
O=C1CCN(c2ccc([N+](=O)[O-])c(C(=O)NC(Cc3ccc(OCc4c(Cl)cccc4Cl)cc3)C(=O)O)c2)CC1 (stereo not shown) [Example 21] | 3300 nM | 160 nM
O=C(NC(Cc1ccc(OCc2c(Cl)cccc2Cl)cc1)C(=O)O)c1cc(N2CCC(O)CC2)ccc1[N+](=O)[O-] (stereo not shown) [Example 22] | 4600 nM | 220 nM
CN(CCO)c1ccc([N+](=O)[O-])c(C(=O)NC(Cc2ccc(OCc3c(Cl)cccc3Cl)cc2)C(=O)O)c1 (stereo not shown) [Example 23] | 2200 nM | 66 nM
O=C(NC(Cc1ccc(OCc2c(Cl)cccc2Cl)cc1)C(=O)O)c1ccc(N2CCNCC2)c([N+](=O)[O-])c1 (stereo not shown) [Example 25] | 4000 nM | 750 nM
CC(C)NCCN(c1ccc([N+](=O)[O-])c(C(=O)NC(Cc2ccc(NC(=O)c3snnc3-c3ccccc3)cc2)C(=O)O)c1)C(C)C (stereo not shown) [Example 26] | 2400 nM | 37 nM
CSc1ncc(Cl)c(C(=O)Nc2ccc(CC(NC(=O)c3cc(N(CCNC(C)C)C(C)C)ccc3[N+](=O)[O-])C(=O)O)cc2)n1 (stereo not shown) [Example 27] | 27 nM | 1.2 nM
CSc1ncc(Cl)c(C(=O)Nc2ccc(C[C@H](NC(=O)c3cc(N(CCNC(C)C)C(C)C)ccc3[N+](=O)[O-])C(=O)O)cc2)n1 [Example 28] | 23 nM | 1.1 nM
CSc1ncc(Cl)c(C(=O)Nc2ccc(C[C@H](NC(=O)c3cc(N(CCN(C(C)=O)C(C)C)C(C)C)ccc3[N+](=O)[O-])C(=O)O)cc2)n1 [Example 30] | 87 nM | 5.3 nM
